Each structure is given as a SMILES string.

The experiment addresses PCAF719-832 bromodomain (Homo sapiens (Human), UniProt Q92831). Description: PCAF AlphaLisa binding assay. To be noted: PCAF bromodomain 225 nM, biotinylated small molecule ligand 6 nM.

PCAF719-832 bromodomain, sequence (Q92831 719-832): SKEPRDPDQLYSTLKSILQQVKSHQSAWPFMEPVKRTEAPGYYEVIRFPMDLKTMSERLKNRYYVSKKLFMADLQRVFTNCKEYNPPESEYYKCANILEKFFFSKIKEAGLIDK
Protocol: PCAF bromodomain binding and inhibition of the compounds disclosed herein was assessed by monitoring the engagement of biotinylated small molecule ligand (known to bind to the PCAF bromodomain) with the target using the AlphaLisa technology (Perkin-Elmer).

In the case of `C[C@H](Nc1nn(C)c(=O)c2ccccc12)[C@H](c1ccc(S(=O)(=O)c2ccccc2)cc1)N(C)C` [Example 55, 4-(((1S,2S)-1-(dimethylamino)-1-(4-(phenylsulfonyl)phenyl)propan-2-yl)amino)-2-methylphthalazin-1(2H)-one], the IC50 (as a rule, the point on the concentration scale where inhibition reaches its midpoint) was determined as 61 nM. The figure for `CN(C)[C@@H]1CCCC[C@H]1Nc1nn(C)c(=O)c2cccnc12` (single isomer, unassigned) [Example 11A] is 180 nM. The figure for `CCn1nc(N[C@@H](C)CN(C)C)c2ccccc2c1=O` (single isomer, unassigned) [Example 17B] is 280 nM; for `CC(C)Oc1ccc([C@@H]([C@H](C)Nc2nn(C)c(=O)c3ccccc23)N(C)C)cc1` (single isomer, unassigned) [Example 59] it is 33 nM. In the case of `CC(CN(C)C)Nc1nn(C)c(=O)c2c1CCN(c1ccc(Cl)cc1)C2` (racemic) [Example 89, 6-(4-chlorophenyl)-1-((1-(dimethylamino)propan-2-yl)amino)-3-methyl-5,6,7,8-tetrahydropyrido[3,4-d]pyridazin-4(3H)-one], the concentration for half-maximal inhibition (IC50) was determined as 1200 nM.

The values are drawn from patent US10155764B2, “Therapeutic compounds and uses thereof” (GENENTECH, INC., priority 2014, dated 2018).
